# Several values for one entry are separate records, joined by “and”; a condition that tells them apart may be missing. Equal entries are not always repeated.
# How the values were obtained:
# [1] = Pilot safety study: complete urinalysis; type: in vivo, dog
# Protocol: (§1) The animal studies were performed in the accordance with the University of Tennessee Institutional Animal Care and Use Committee (UT IACUC)-approved protocols and in an accordance with NIH guidelines. Individually housed research healthy female beagle dogs (Covance Research Product) with weights of 6.7 to 10.3 kg were used to assess the safety and pharmacokinetic parameters of fluorocoxib D administrated a dose of 1 mg/kg over 20 min intravenously (i.v.).
# (§2) For single dose safety evaluation studies, we administrated fluorocoxib D at 1 mg/kg , i.v. using a preplaced cephalic or saphenous vein catheter over 20 min to six healthy research dogs following protocol as described previously.[38] Briefly, physical examinations for signs of potential drug toxicity were performed before, during, and daily for 3 days after fluorocoxib D administration. Physical assessment included auscultation of heart and lungs, abdominal palpation, body temperature, appetite, attitude, activity levels monitoring, and other health-related events. Hypersensitivity was evaluated by direct observation of each dog during treatment for clinical signs of an allergic reaction (facial swelling, flushing, urticaria, dyspnea, scratching, and changes of heart rates). […] Laboratory evaluations of blood and urine were carried out before and 3 days after fluorocoxib D administration to monitor signs of toxicity. Blood (up to 3 ml) was collected into ethylenediaminetetraacetic acid (EDTA) and heparin-treated tubes, and urine (up to 5 ml) was collected by cystocentesis or from the floor of the runs. The laboratory evaluation consisted of a complete blood count (CBC), serum chemistry profile, and complete urinalysis. The CBC evaluated total white blood cells (WBC) and hematocrit (HCT), in addition to absolute numbers of neutrophils, lymphocytes, monocytes, eosinophils, and platelets. The plasma chemistry profile evaluated blood urea nitrogen (BUN), creatinine, proteins (albumin, globulins, and total proteins), alanine aminotransferase (ALT), total bilirubin, glucose, and electrolytes. The complete urinalysis evaluated urine proteins, glucose, and ketones; a sediment examination and urine-specific gravity were validated as well for any possible signs of renal toxicity of fluorocoxib D. All laboratory tests were carried out at the Veterinary Medical Center of the University of Tennessee in Knoxville.
# COX2 = conditions: cited from earlier work
# [2] = Pilot safety study: serum chemistry profile; type: in vivo, dog; conditions: 3 days after single dose 1 mg/kg i.v.
# Protocol: as §1, §2
# [3] = tested on: COX-2-expressing head and neck cancer (HNC); assay: Fluorocoxib D uptake in HNC mass during rhinoscopy in a client-owned dog; type: in vivo; conditions: for Uptake of fluorocoxib D in HNC during rhinoscopy: 1 mg/kg i.v. over 20 min, half hour uptake, client-owned dog, chondrosarcoma
# Protocol: The owners signed a consent form for enrolling their dog for our proof-of principal study. A nine-year old female-spayed Golden Retriever dog weighing 35 kg was presented for an acute onset of unilateral right-sided epistaxis of 5-day duration. Previous medical history included a grade 2 soft tissue sarcoma with a high mitotic index that was completely excised from her ventral neck ∼2 years prior with no signs of regrowth. Rhinoscopy and biopsy procedure in the dog was performed by board-certified veterinary internal specialists (SO and JS) in an accordance with a standard veterinary care and the UT IACUC-approved protocol. Fluorocoxib D was administrated i.v. 1 mg/kg over 20 min using a catheter, followed by a half hour uptake before initiation of rhinoscopy procedure. Rhinoscopy was used to obtain biopsy samples guided by uptaken fluorocoxib D in the computed tomography (CT)-identified head and neck cancer (HNC) mass. Rhinoscopy and biopsy procedures in dog were performed under general anesthesia using a 2.7-mm, 30-deg, 18-cm rigid scope (Karl Storz Veterinary Endoscopy) attached to a TRICAM PDD as described previously[38] using a custom-designed filter system for detection of fluorocoxib D ( λem 645±50 nm ). After complete recovery from the rhinoscopic examination and anesthesia in a quiet room, the client-owned dog was returned to its owners. The heat map images with adjusted hue saturation of fluorocoxib D signal (pink color) from normal tissue (upper three images) and HNC tumor (lower three images) obtained during rhinoscopy were generated using Adobe Photoshop CC2019 software ([…]) in order to better visualize the tumor and its margins. […]
# The biopsy samples obtained during rhinoscopy procedures in dogs were formalin-fixed and paraffin-embedded and sectioned at 7-μm thin sections for histology and immunohistochemistry analysis for detection of COX-2 and Ki67 expression as described previously.[38] […] The tissue specimens were evaluated using a Leitz DMRB microscope. […]
# [4] = 3 days after single dose 1 mg/kg i.v., individual dogs, reference NEG, 1 mg/kg
smiles,measurement,setting,value
"COc1ccc2c(c1)c(CC(=O)NCCCCNC(=O)c1ccc(C3=c4cc5c6c(c4Oc4c3cc3c7c4CCCN7CCC3)CCC[N+]=6CCC5)cc1)c(C)n2C(=O)c1ccc(Cl)cc1 [Fluorocoxib D, N -[(rhodamin-X-yl)but-4-yl]-2-[1-(4-chlorobenzoyl)-5-methoxy-2-methyl-1H-indol-3-yl]acetamide]","SP. GRAV (urine-specific gravity), After","[1]; 3 days after single dose 1 mg/kg i.v., individual dogs, 1 mg/kg",1.03 and 1.039 (2×) and 1.032 and 1.044
same,"GLU-COSE (urine), After","[1]; 3 days after single dose 1 mg/kg i.v., individual dogs, reference NEG",NEG
same,"PRO-TEIN (urine), After","[1]; 3 days after single dose 1 mg/kg i.v., individual dogs, reference NEG-1+, 1 mg/kg",NEG (3×) and TRACE
same,"BLD/Hb (urine blood/hemoglobin), After",[1]; [4],NEG (2×) and TRACE (2×)
same,"KETO-NES (urine), After",[1]; [4],NEG (3×) and TRACE (2×)
same,"PH (urine pH), After","[1]; 3 days after single dose 1 mg/kg i.v., individual dogs, reference range 5 to 9, 1 mg/kg",>9 H and 6 (3×) and 5.5
same,Urine bacteria finding 3 days after administration,"[1]; two dogs (#4 and #6), no pyuria, not thought relevant to toxicity",bacteriuria
same,IC50,COX2,230 nM
same,Ratio (COX1/COX2),COX2; ratio of IC50 values,17.4
same,"TOT BILI (total bilirubin), After","[2]; dogs #1, #3, #6, reference range 0.1 to 0.6",0.1 mg/dL
same,"CREATI (creatinine), After","[2]; individual dogs #1-#6, reference range 0.3 to 1.1, 1 mg/kg",0.8 mg/dL (3×) and 0.6 mg/dL (3×)
same,"MAG (magnesium), After","[2]; individual dogs #1-#6, reference range 0.65 to 0.98, 1 mg/kg",0.7 mmol/L (4×) and 0.8 mmol/L (2×)
same,"GLOB (globulin), After","[2]; individual dogs #1-#6, reference range 1.9 to 3.1, 1 mg/kg",2.3 g/dL (2×) and 2 g/dL (2×) and 2.6 g/dL and 2.1 g/dL
same,"PHOS (phosphorus), After","[2]; individual dogs #1-#6, reference range 2.5 to 5.9, 1 mg/kg",3.5 mg/dL and 4.3 mg/dL and 3.3 mg/dL and 3.9 mg/dL and 3.4 mg/dL and 3.6 mg/dL
same,"POTAS (potassium), After","[2]; individual dogs #1-#6, reference range 2.8 to 4.7, 1 mg/kg",3.9 mEq/L and 4.2 mEq/L and 3.7 mEq/L (2×) and 3.5 mEq/L and 3.8 mEq/L
same,"ALBUM (albumin), After","[2]; individual dogs #1-#6, reference range 3.2 to 4.3, 1 mg/kg",3.1 L g/dL and 3.4 g/dL (2×) and 3 L g/dL and 3.5 g/dL and 3.3 g/dL
same,"TOT. PROT (total proteins), After","[2]; individual dogs #1-#6, reference range 5.4 to 6.8, 1 mg/kg",5.4 g/dL (2×) and 5.7 g/dL and 5.6 g/dL (2×) and 5.2 L g/dL
same,"BUN (blood urea nitrogen), After","[2]; individual dogs #1-#6, reference range 7 to 37, 1 mg/kg",12 mg/dL and 17 mg/dL (2×) and 14 mg/dL and 16 mg/dL and 19 mg/dL
same,"CAL (calcium), After","[2]; individual dogs #1-#6, reference range 10 to 12, 1 mg/kg",9.5 L mg/dL and 10 mg/dL and 9.9 L mg/dL and 9.7 L mg/dL and 10.3 mg/dL and 9.4 L mg/dL
same,"ALT (alanine aminotransferase), After","[2]; individual dogs #1-#6, reference range 18 to 100, 1 mg/kg",26 U/L (2×) and 23 U/L and 22 U/L (2×) and 25 U/L
same,"GLUCO (glucose), After","[2]; individual dogs #1-#6, reference range 82 to 132, 1 mg/kg",94 mg/dL and 103 mg/dL and 100 mg/dL and 91 mg/dL and 105 mg/dL and 110 mg/dL
same,"CHLOR (chlorine), After","[2]; individual dogs #1-#6, reference range 112 to 119, 1 mg/kg",111 L mEq/L and 114 mEq/L (2×) and 113 mEq/L and 112 mEq/L and 116 mEq/L
same,"SOD (sodium), After","[2]; individual dogs #1-#6, reference range 141 to 147, 1 mg/kg",144 mEq/L and 146 mEq/L (2×) and 147 mEq/L (2×) and 148 H mEq/L
same,Uptake of fluorocoxib D in HNC during rhinoscopy,[3],uptake was detected
same,Uptake of fluorocoxib D in HNC during rhinoscopy,[3]; listed as fluorocoxib D,Specific uptake of fluorocoxib D was detected
same,Tumor-to-normal tissue ratio (T/N ratio) of fluorocoxib D signal,"[3]; 1 mg/kg i.v., canine HNC, ImageJ, normal n=804 and tumor ROI n=866",3.7±0.9

# Source: publication PMC7456637, “Pharmacokinetic characterization of fluorocoxib D, a cyclooxygenase-2-targeted optical imaging agent for detection of cancer” (Journal of Biomedical Optics, 2020)
